In publication PMC6842052 (The Journal of pharmacy and pharmacology, 2019):

Key:
[1] = test system: human potassium hERG channel; conditions: ref unpublished results; cited from earlier work
[2] = ref unpublished results; cited from earlier work
[3] = Pharmacokinetic study of URB937 in rats; assay type: in vivo, rat
[4] = test system: OEA levels (biomarker of FAAH activity); experiment: OEA levels in liver and plasma after oral URB937; assay type: in vivo; conditions: rat, oral 0.3, 1, 3, 10 mg/kg, one hour
[5] = test system: male and female rats; experiment: Acute toxicity study; assay type: in vivo, rat
[6] = test system: male and female rats; experiment: Subchronic toxicity study
[7] = male Sprague Dawley rats, 3 mg/kg oral
[8] = male and female rats, single oral 100, 300, 1000 mg/kg
[9] = male rats, single oral 300 mg/kg, 7 days
[10] = male and female rats, 100, 300, 1000 mg/kg oral for 14 days

## NC(=O)c1cccc(-c2cc(OC(=O)NC3CCCCC3)ccc2O)c1 [URB937]
[1]
  inhibition of the human potassium hERG channel: does not inhibit
[2]
  genotoxic effects in the Ames' test: does not exert genotoxic effects
[3]; [7]
  AUCplasma, area under the curve: 656.2 ng·h/mL
  Tmax, time at which Cmax is reached: 60 min
  Vd, distribution volume: 17.9 L
[3]; male Sprague Dawley rats, 3 mg/kg oral vs intravenous
  F, oral bioavailability: 36%
[3]; male Sprague Dawley rats, 3 mg/kg oral, noncompartmental model
  Cl, clearance: 76.64 mL/min
[3]; male Sprague Dawley rats, 3 mg/kg oral, plasma
  Cmax, maximal plasma concentration: 159.47 ng/mL
[3]; male Sprague Dawley rats, 3 mg/kg oral, 3 mg/kg
  t1/2, terminal half-life: 162.1 min
[3]; male rats, 3 mg/kg oral
  t1/2 (cleared from circulation): approximately 3 h
[3]; male rats, 3 mg/kg oral, below limit of detection (LOD 50 pg/ml, LOQ 300 pg/ml)
  brain levels of URB937: < 50 pg/mL
[3]; rats, oral 0.3 to 100 mg/kg, 1 h after treatment
  plasma levels of URB937 in dose-escalation study: increased linearly in the dose range of 0.3 to 10 mg/kg and reached saturation between 30 mg/kg and 100 mg/kg
[4]
  OEA levels in liver: dose-dependent elevation
  OEA levels in plasma: dose-dependent elevation
[5]; female rats, single oral 100 mg/kg, 7 days
  food intake: small, but significant increase
[5]; female rats, single oral 1000 mg/kg, 7 days
  water consumption: larger increment
[5]; male and female rats, acute oral administration of supramaximal doses
  tolerability: well tolerated
[5]; [8]
  hematology and blood chemistry screens: no significant alterations
  macroscopic examination at necropsy and microscopic histopathology: did not reveal any abnormality
  mortality: None of the animals died
[5]; [9]
  cumulative food intake: reduced
  cumulative water intake: reduced
[6]; female rats, 300 mg/kg oral once daily for 14 days
  food intake: small increase
[6]; [10]
  macroscopic examination at necropsy and microscopic histopathology: did not reveal any abnormality
  mortality: None of the animals died
[6]; male and female rats, subchronic (2 weeks) oral administration of supramaximal doses
  tolerability: well tolerated
[6]; male rats only, 14-day oral administration
  plasma glucose levels: increase
